Here are results for one molecule from patent US9133225B2, “Dual targeting anticancer agents” (priority 2013, dated 2015).

In data set [1] the test system is Bcl-xL. Nature of the data set: Immunoblotting analysis of Bcl-xL expression. The class given is cell-based. The conditions noted are these: A549 cells. How it is done: (§1) α-TOS is known to disrupt Bcl-xL-Bax interactions, activate Bax, and thus mediate mitochondrial centered apoptotic cell death. Co-immunoprecipitation studies were carried out to determine whether the Pt(IV)-α-TOS conjugates could behave in a similar manner. […] Additional immunoblotting studies were carried to determine the effect of Pt(IV)(α-TOS)(OEt) treatment on transcription. […] Overall Pt(IV)(α-TOS)(OEt) was able to (1) downregulate Bcl-xL expression and (2) inhibit the interaction of Bcl-xL with Bax, a prerequisite for mitochondrial dysfunction. The former is inherent to cisplatin but not α-TOS, and the latter was inherent to α-TOS but not cisplatin.
A549 cells (5×10^5 cells) were incubated with test compound for 48 h at 37° C. Cells were washed with PBS, scraped into SDS-PAGE loading buffer (64 mM Tris-HCl (pH6.8)/9.6% glycerol/2% SDS/5% β-mercaptoethanol/0.01% Bromophenol Blue) and incubated at 95° C. for 10 min. Whole cell lysates were resolved by 4-20% sodium dodecylsulphate polyacylamide gel electrophoresis (SDS-PAGE; 200 V for 1 h) followed by electro transfer to polyvinylidene difluoride membrane, PVDF (350 mA for 1 h). Membranes were blocked in 5% (w/v) non-fat milk in PBST (PBS/0.1% Tween 20) and incubated with the appropriate primary antibodies (Cell Signalling Technology and Santa Cruz). After incubation with horseradish peroxidase-conjugated secondary antibodies (Cell Signalling Technology), immune complexes were detected with the ECL detection reagent (BioRad) and analysed using an Alpha Innotech ChemiImager™ 5500 fitted with a chemiluminescence filter.
(A western blot detects proteins with antibodies after separation by electrophoresis.)

Data set [2] deals with T1, Bcl-xL-Bax interactions (Homo sapiens, UniProt Q07817).
T1 construct: endogenous in cells; host or cells: A549
T1 sequence (Q07817 whole entry): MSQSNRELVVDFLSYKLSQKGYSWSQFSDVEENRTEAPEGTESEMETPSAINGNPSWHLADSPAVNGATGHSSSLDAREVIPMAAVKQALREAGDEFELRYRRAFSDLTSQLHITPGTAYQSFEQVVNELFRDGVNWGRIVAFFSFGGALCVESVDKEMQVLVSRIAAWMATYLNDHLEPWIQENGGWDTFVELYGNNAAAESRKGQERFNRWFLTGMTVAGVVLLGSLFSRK
Nature of the data set: Co-immunoprecipitation of Bcl-xL, probed for Bax. The class given is cell-based. The following applies: A549 cells, respective IC50 values, 48 h. Here is the method: as §1
A549 cells (5×10^5 cells) were incubated with test compound for 48 h at 37° C. […] The resultant cell lysate was treated with protein A-agarose bead slurry (50 μL) and centrifuged to remove proteins that bind non-specifically. Anti Bcl-XL antibody (Cell Signalling Technology) was added to the lysate and incubated for 2 h at room temperature. Protein A-agarose bead slurry (50 μL) was added and the mixture was incubated at 4° C. overnight. Centrifugation allowed separation of the immunocomplex, which was washed with cold RIPA buffer (3×500 μL). The immunocomplex was then suspended in SDS-PAGE loading buffer (50 μL) and incubated at 95° C. for 10 min. The solution containing the immunocomplex was isolated by centrifugation and then analysed for Bax content using the immunoblotting analysis protocol described above.

For data set [3], the system named is HeLa cells. Nature of the data set: MTT cytotoxicity assay, HeLa. The following applies: read-out: cytotoxicity IC50; HeLa, cervical; MTT, 48 h treatment; spread in brackets. From the text: (a) Dulbecco's Modified Eagle Medium (DMEM), Dulbecco's phosphate buffered saline (DPBS), fetal bovine serum (FBS) and 0.25% trypsin/EDTA solutions were purchased from Cellgro (Manassas, Va.). Penicillin-streptomycin solutions were purchased from Mediatech (Manassas, Va.). (b) HeLa (CCL-2TM) cells, A549, A2870, A2870/CP70, MCF-7, PC-3, and MRC-5 cells were purchased from American Type Culture Collection (ATCC, Manassas, Va., USA). (c) HCT116 cells were kindly donated by Laura Trudel (MIT). HeLa, A549, MCF-7, and MRC-5 cells were cultured using DMEM supplemented with 10% FBS and 1% penicillin-streptomycin. A2870, A2870/CP70, and PC-3 cells were cultured in RPMI supplemented with 10% FBS and 1% penicillin-streptomycin. HCT116 cells were cultured in McCoy's supplemented with 10% FBS and 1% penicillin-streptomycin. All cell-culture experiments were performed in the aforementioned media in an incubator operating at 37° C. and in the presence of a humidified atmosphere containing 5.0% CO2. Cells were harvested using a 0.25% trypsin/EDTA solution.
The cytotoxicity of the compounds was assessed by means of the MTT assay (MTT=3-(4,5-dimethyl-2-thiazolyl)-2,5-diphenyl-2H-tetrazolium bromide). Typically, on day one, ˜1×10^3 cells were seeded into 96-well plates in 100 μL media per well. […] The optical density for each well at 550 nm was measured with a microplate reader.

`CC[O][Pt]([NH2])([NH2])([Cl])([Cl])[O]C(=O)CCC(=O)Oc1c(C)c(C)c2c(c1C)CCC(C)(CCCC(C)CCCC(C)CCCC(C)C)O2` (stereo not drawn) [Pt(IV)(α-TOS)(OEt)]: the Bcl-xL expression result in data set [1] is given as “induced a reduction in Bcl-xL expression”. Moreover, the “Bcl-xL-Bax interaction (Bax associated to the Bcl-xL immunoprecipitate)” value in data set [2] is recorded as “reduced Bcl-xL-Bax interactions”. In data set [3], the IC50 – broadly, the concentration at which inhibition is half-maximal – is 1900 nM.
